Experiment [1] deals with T1, hM3 muscarinic receptor (Homo sapiens, UniProt P20309).
T1 construct: expressed in transfected cells; host or cells: CHO cells, stably transfected; membrane fractions
The experiment in a line: Equilibrium inhibition binding with [3H]-NMS, CHO cell membranes. To be noted: [3H]-NMS 0.2 nM, mean ± SEM of 3-4 experiments, read-out: pKi hM3 (converted). On the procedure:
(§1) All tested compounds were purchased from Merck KGaA (Darmstadt, Germany). The radioligand binding experiments were performed with membranes from Chinese Hamster Ovary (CHO) cells stably transfected with the five cloned human muscarinic receptor subtypes (hM1-5). Membrane fractions were prepared according to the protocol, which have been previously described; membranes were stored at −80 °C until use. Nonspecific binding was defined by the radioactivity bound in the presence of 10 µM atropine.
(§2) Aliquots of membranes (25–70 µg/mL) were added and incubated for 2 h at room temperature, filtered through UniFilter GF/B plates (PerkinElmer Life and Analytical Science, Monza, Italy) using a FilterMate cell harvester (PerkinElmer Life and Analytical Science, Monza, Italy). The filters were washed several times with ice-cold MilliQ water. Then, the plates were counted in a β-counter (TopCount NXT microplate scintillation counter, PerkinElmer Life and Analytical Science, Monza, Italy).
(§3) Data points from radioligand inhibition binding curve were fitted to models using nonlinear regression equation to determine inhibitor potency (IC50) estimates, which were then converted to Ki values as appropriate.
(§4) All the results are expressed as means ± SEM obtained from 3-4 independent experiments each one performed in duplicate.

For experiment [2], the target named is T2, hM4 muscarinic receptor (Homo sapiens, UniProt P08173).
T2 construct: expressed in transfected cells; host or cells: CHO cells, stably transfected; membrane fractions
T2 sequence (P08173 1-479): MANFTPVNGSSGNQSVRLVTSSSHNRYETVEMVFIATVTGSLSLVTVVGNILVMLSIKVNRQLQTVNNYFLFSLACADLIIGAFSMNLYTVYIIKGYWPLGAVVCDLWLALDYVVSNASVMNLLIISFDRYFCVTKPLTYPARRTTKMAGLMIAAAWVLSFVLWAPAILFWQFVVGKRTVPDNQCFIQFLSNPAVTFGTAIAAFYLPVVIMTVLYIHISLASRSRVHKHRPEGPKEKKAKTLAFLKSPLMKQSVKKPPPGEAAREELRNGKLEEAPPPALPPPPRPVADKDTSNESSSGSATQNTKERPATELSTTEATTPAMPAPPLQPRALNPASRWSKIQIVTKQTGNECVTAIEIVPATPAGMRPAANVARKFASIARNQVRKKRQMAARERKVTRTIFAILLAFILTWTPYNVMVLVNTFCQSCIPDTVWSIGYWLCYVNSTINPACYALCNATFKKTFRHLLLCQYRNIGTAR
Described as above. Conditions: [3H]-NMS 0.2 nM, CHO membranes, mean ± SEM of 3-4 experiments; read-out: pKi hM4 (converted). On the procedure: as §1, §2, §3, §4

The target in experiment [3] is T3, hM1 muscarinic receptor (Homo sapiens, UniProt P11229).
T3 construct: expressed in transfected cells; host or cells: CHO cells, stably transfected; membrane fractions
T3 sequence (P11229 1-460): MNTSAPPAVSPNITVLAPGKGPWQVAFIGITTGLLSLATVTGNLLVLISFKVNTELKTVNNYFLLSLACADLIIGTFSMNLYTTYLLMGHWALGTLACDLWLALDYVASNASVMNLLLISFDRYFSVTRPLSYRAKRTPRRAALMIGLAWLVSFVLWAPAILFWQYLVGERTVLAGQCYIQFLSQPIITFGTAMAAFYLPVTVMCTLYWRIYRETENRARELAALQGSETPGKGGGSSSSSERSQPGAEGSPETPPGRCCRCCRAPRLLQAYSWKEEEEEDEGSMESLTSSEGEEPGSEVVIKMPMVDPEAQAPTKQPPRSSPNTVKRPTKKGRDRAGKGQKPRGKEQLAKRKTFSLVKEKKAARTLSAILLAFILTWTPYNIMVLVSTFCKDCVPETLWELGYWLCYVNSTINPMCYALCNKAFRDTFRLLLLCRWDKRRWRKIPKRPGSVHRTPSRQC
The description is as above. Conditions: [3H]-NMS 0.2 nM, mean ± SEM of 3-4 experiments, read-out: pKi hM1 (converted). On the procedure: as §1, §2, §3, §4

Experiment [4] deals with T4, hM2 subtype (Homo sapiens, UniProt P08172).
T4 construct: expressed in transfected cells; host or cells: CHO cells, stably transfected; membrane fractions
T4 sequence (P08172 1-466): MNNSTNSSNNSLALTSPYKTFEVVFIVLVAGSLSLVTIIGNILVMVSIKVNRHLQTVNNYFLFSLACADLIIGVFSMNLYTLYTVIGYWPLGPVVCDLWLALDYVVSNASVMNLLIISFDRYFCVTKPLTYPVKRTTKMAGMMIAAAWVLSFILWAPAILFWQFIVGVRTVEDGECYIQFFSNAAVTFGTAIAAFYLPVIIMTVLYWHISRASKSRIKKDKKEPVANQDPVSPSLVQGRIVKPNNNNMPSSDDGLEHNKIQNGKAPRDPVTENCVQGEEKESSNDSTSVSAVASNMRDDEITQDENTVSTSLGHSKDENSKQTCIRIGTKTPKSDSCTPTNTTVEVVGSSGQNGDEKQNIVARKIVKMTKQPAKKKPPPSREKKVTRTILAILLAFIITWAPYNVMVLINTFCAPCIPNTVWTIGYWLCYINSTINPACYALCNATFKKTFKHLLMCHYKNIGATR
Nature of the experiment: Full time course [3H]-NMS dissociation kinetic assay. The class given is binding. Conditions: versus control, concentration 0.3 μM. As to the method:
as §1
Dissociation binding assays were conducted in assay buffer at room temperature as above described. Membranes were preincubated with 2 nM [^3H]-NMS for 60 min at room temperature (mix membrane). […] Nonspecific binding was measured in separately prepared tubes containing 100 µL of mix membrane plus atropine 10 µM. […]
Radioligand dissociation rates in absence or in presence of the allosteric modulator were analyzed by non linear regression according to the equation for mono-exponential decay using GraphPad Prism 5.02.
as §4

Results on one compound are retold here after publication PMC7503225, “Repositioning Dequalinium as Potent Muscarinic Allosteric Ligand by Combining Virtual Screening Campaigns and Experimental Binding Assays” (International Journal of Molecular Sciences, 2020).

T1 sequence (P20309 whole entry): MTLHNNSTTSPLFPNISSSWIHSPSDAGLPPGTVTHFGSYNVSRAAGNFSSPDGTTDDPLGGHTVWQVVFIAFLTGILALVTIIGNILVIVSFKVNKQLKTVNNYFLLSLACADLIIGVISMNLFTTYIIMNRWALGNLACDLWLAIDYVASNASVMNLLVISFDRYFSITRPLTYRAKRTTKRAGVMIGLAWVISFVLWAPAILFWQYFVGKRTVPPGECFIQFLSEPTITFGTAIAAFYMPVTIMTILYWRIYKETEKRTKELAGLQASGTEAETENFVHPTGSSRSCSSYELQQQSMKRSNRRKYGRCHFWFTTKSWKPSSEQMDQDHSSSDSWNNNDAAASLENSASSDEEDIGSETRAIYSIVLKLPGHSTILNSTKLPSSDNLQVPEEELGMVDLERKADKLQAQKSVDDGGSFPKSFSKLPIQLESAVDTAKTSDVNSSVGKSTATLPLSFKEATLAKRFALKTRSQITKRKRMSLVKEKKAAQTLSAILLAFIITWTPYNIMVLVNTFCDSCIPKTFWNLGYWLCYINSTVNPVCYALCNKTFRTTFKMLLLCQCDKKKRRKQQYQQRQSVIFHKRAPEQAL

Consider `Cc1cc(N)c2ccccc2[n+]1CCCCCCCCCC[n+]1c(C)cc(N)c2ccccc21` [dequalinium], for which the values for the Ki in experiment [1], in experiment [2] and in experiment [3] were 170 nM, 69.2 nM and 41.7 nM, respectively. In addition, in experiment [4], the t1/2 reduction was determined as 17.3 fold.
